Data published in ChEMBL document CHEMBL1201861, “Genomics of Drug Sensitity in Cancer screening data, Wellcome Trust Sanger Institute”.

Tests used:
Assay in all cases: cells
[1] = system: KYSE-510; type: functional, cell-based, Homo sapiens; settings: Homo sapiens, KYSE-510;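 note: cell viability readout used to measure how strongly growth of the cell line is suppressed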
Description: SANGER: Inhibition of human KYSE-510 cell growth in a cell viability assay.

[2] = system: SN12C; type: functional, cell-based, Homo sapiens; settings: Homo sapiens, SN12C;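 note: growth inhibition of human SN12C cells, measured by a cell viability assay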
Description: SANGER: Inhibition of human SN12C cell growth in a cell viability assay.

[3] = system: SF-295; type: functional, cell-based, Homo sapiens; settings: Homo sapiens, SF-295;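 note: growth inhibition of SF-295 cells, read out with a cell viability assay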
Description: SANGER: Inhibition of human SF295 cell growth in a cell viability assay.

[4] = system: OVCAR-5; type: functional, cell-based, Homo sapiens; settings: Homo sapiens, OVCAR-5;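 note: growth inhibition of human OVCAR-5 cells, read out with a cell viability assay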
Description: SANGER: Inhibition of human OVCAR-5 cell growth in a cell viability assay.

[5] = system: HT-1376; type: functional, cell-based, Homo sapiens; settings: Homo sapiens, HT-1376
Description: SANGER: Inhibition of human HT-1376 cell growth in a cell viability assay.

[6] = system: PF-382; type: functional, cell-based, Homo sapiens; settings: Homo sapiens, PF-382
Description: SANGER: Inhibition of human PF-382 cell growth in a cell viability assay.

[7] = system: RCM-1; type: functional, cell-based, Homo sapiens; settings: Homo sapiens, RCM-1;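 note: growth inhibition of the RCM-1 line, determined with a cell viability readout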
Description: SANGER: Inhibition of human RCM-1 cell growth in a cell viability assay.

[8] = system: CP50-MEL-B; type: functional, cell-based, Homo sapiens; settings: Homo sapiens, CP50-MEL-B;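 note: growth inhibition of the human cell line, measured with a cell viability read-out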
Description: SANGER: Inhibition of human CP50-MEL-B cell growth in a cell viability assay.

[9] = system: HOP-92; type: functional, cell-based, Homo sapiens; settings: Homo sapiens, HOP-92;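 note: cell viability readout, with IC50 reflecting inhibition of HOP-92 cell growth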
Description: SANGER: Inhibition of human HOP-92 cell growth in a cell viability assay.

[10] = system: AN3-CA; type: functional, cell-based, Homo sapiens; settings: Homo sapiens, AN3-CA;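 note: growth inhibition of human AN3-CA cells measured by a cell viability assay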
Description: SANGER: Inhibition of human AN3-CA cell growth in a cell viability assay.

[11] = system: DU-145; type: functional, cell-based, Homo sapiens; settings: Homo sapiens, DU-145
Description: SANGER: Inhibition of human DU-145 cell growth in a cell viability assay.

[12] = system: HuCCT-1; type: functional, cell-based, Homo sapiens, HuCCT1; settings: Homo sapiens, HuCCT-1;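 note: growth inhibition of HuCCT-1 cells, read out by a cell viability assay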
Description: SANGER: Inhibition of human HuCCT1 cell growth in a cell viability assay.

[13] = system: C-33-A; type: functional, cell-based, Homo sapiens; settings: Homo sapiens, C-33-A;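 note: cell viability assay measuring growth inhibition of C-33-A cells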
Description: SANGER: Inhibition of human C-33-A cell growth in a cell viability assay.

[14] = system: Calu-3; type: functional, cell-based, Homo sapiens; settings: Homo sapiens, Calu-3;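 note: growth inhibition of human Calu-3 cells, determined with a cell viability assay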
Description: SANGER: Inhibition of human Calu-3 cell growth in a cell viability assay.

[15] = system: NCI-H2171; type: functional, cell-based, Homo sapiens; settings: Homo sapiens, NCI-H2171;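 note: growth inhibition of human NCI-H2171 cells, read out by a cell viability assay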
Description: SANGER: Inhibition of human NCI-H2171 cell growth in a cell viability assay.

[16] = system: KYSE-150 cell line; type: functional, cell-based, Homo sapiens; settings: Homo sapiens, KYSE-150;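 note: growth inhibition of human KYSE-150 cells, read out with a cell viability assay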
Description: SANGER: Inhibition of human KYSE-150 cell growth in a cell viability assay.

[17] = system: Panc1005; type: functional, cell-based, Homo sapiens; settings: Homo sapiens, Panc1005;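 note: growth inhibition of human PANC-10-05 cells, measured by a cell viability assay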
Description: SANGER: Inhibition of human PANC-10-05 cell growth in a cell viability assay.

[18] = system: NCI-H1755; type: functional, cell-based, Homo sapiens; settings: Homo sapiens, NCI-H1755;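 note: cell viability readout used to measure growth inhibition of NCI-H1755 cells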
Description: SANGER: Inhibition of human NCI-H1755 cell growth in a cell viability assay.

[19] = system: SK-MEL3; type: functional, cell-based, Homo sapiens, SK-MEL-3; settings: Homo sapiens, SK-MEL3;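 note: growth inhibition of human SK-MEL-3 cells, read out with a cell viability assay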
Description: SANGER: Inhibition of human SK-MEL-3 cell growth in a cell viability assay.

[20] = system: NCI-H727; type: functional, cell-based, Homo sapiens; settings: Homo sapiens, NCI-H727;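 note: growth inhibition of human NCI-H727 cells, read out with a cell viability assay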
Description: SANGER: Inhibition of human NCI-H727 cell growth in a cell viability assay.

[21] = system: SCC-9; type: functional, cell-based, Homo sapiens; settings: Homo sapiens, SCC-9;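 note: Read-out is a cell viability assay, with values giving inhibition of cell growth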
Description: SANGER: Inhibition of human SCC-9 cell growth in a cell viability assay.

[22] = system: SK-HEP1; type: functional, cell-based, Homo sapiens, SK-HEP-1; settings: Homo sapiens, SK-HEP1;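 note: cell viability readout used to quantify reduction in proliferation of human SK-HEP-1 cells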
Description: SANGER: Inhibition of human SK-HEP-1 cell growth in a cell viability assay.

[23] = system: HT1197; type: functional, cell-based, Homo sapiens, HT-1197; settings: Homo sapiens, HT1197
Description: SANGER: Inhibition of human HT-1197 cell growth in a cell viability assay.

[24] = system: PC-14; type: functional, cell-based, Homo sapiens; settings: Homo sapiens, PC-14;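 note: cell viability assay measuring inhibition of PC-14 cell growth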
Description: SANGER: Inhibition of human PC-14 cell growth in a cell viability assay.

[25] = system: HuP-T3; type: functional, cell-based, Homo sapiens; settings: Homo sapiens, HuP-T3;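 note: HuP-T3 cell growth inhibition, read out with a cell viability assay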
Description: SANGER: Inhibition of human HuP-T3 cell growth in a cell viability assay.

[26] = system: CAL-27; type: functional, cell-based, Homo sapiens; settings: Homo sapiens, CAL-27;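 note: Viability-based readout, IC50 reflecting inhibition of CAL-27 cell growth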
Description: SANGER: Inhibition of human CAL-27 cell growth in a cell viability assay.

[27] = system: HSC-3; type: functional, cell-based, Homo sapiens; settings: Homo sapiens, HSC-3
Description: SANGER: Inhibition of human HSC-3 cell growth in a cell viability assay.

[28] = system: NCI-H2052; type: functional, cell-based, Homo sapiens; settings: Homo sapiens, NCI-H2052;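 note: growth inhibition of NCI-H2052 cells, read out with a cell viability assay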
Description: SANGER: Inhibition of human NCI-H2052 cell growth in a cell viability assay.

[29] = system: A2058; type: functional, cell-based, Homo sapiens; settings: Homo sapiens, A2058;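 note: reduction of A2058 cell growth, read out with a viability assay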
Description: SANGER: Inhibition of human A2058 cell growth in a cell viability assay.

[30] = system: ACHN; type: functional, cell-based, Homo sapiens; settings: Homo sapiens, ACHN;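 note: cell viability read-out used to gauge how strongly growth of human ACHN cells is suppressed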
Description: SANGER: Inhibition of human ACHN cell growth in a cell viability assay.

[31] = system: BFTC-909; type: functional, cell-based, Homo sapiens; settings: Homo sapiens, BFTC-909
Description: SANGER: Inhibition of human BFTC-909 cell growth in a cell viability assay.

[32] = system: ASPC1; type: functional, cell-based, Homo sapiens; settings: Homo sapiens, ASPC1;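 note: growth inhibition of AsPC-1 cells, read out with a cell viability assay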
Description: SANGER: Inhibition of human AsPC-1 cell growth in a cell viability assay.

[33] = system: TE-441-T; type: functional, cell-based, Homo sapiens; settings: Homo sapiens, TE-441-T
Description: SANGER: Inhibition of human TE-441-T cell growth in a cell viability assay.

[34] = system: HCC1569; type: functional, cell-based, Homo sapiens; settings: Homo sapiens, HCC1569;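 note: growth inhibition of human HCC1569 cells, read out with a cell viability assay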
Description: SANGER: Inhibition of human HCC1569 cell growth in a cell viability assay.

[35] = system: SK-MEL-24; type: functional, cell-based, Homo sapiens; settings: Homo sapiens, SK-MEL-24;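 note: growth inhibition read out by a cell viability assay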
Description: SANGER: Inhibition of human SK-MEL-24 cell growth in a cell viability assay.

[36] = system: MDA-MB-361; type: functional, cell-based, Homo sapiens; settings: Homo sapiens, MDA-MB-361
[37] = system: P12-Ichikawa; type: functional, cell-based, Homo sapiens; settings: Homo sapiens, P12-Ichikawa
[38] = system: CAL-85-1; type: functional, cell-based, Homo sapiens; settings: Homo sapiens, CAL-85-1;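 note: growth inhibition of human CAL-85-1 cells, read out with a cell viability assay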
Description: SANGER: Inhibition of human CAL-85-1 cell growth in a cell viability assay.

[39] = system: NCI-H1563; type: functional, cell-based, Homo sapiens; settings: Homo sapiens, NCI-H1563;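 note: growth inhibition of human NCI-H1563 cells, read out with a cell viability assay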
Description: SANGER: Inhibition of human NCI-H1563 cell growth in a cell viability assay.

[40] = system: BFTC-905; type: functional, cell-based, Homo sapiens; settings: Homo sapiens, BFTC-905
Description: SANGER: Inhibition of human BFTC-905 cell growth in a cell viability assay.

[41] = system: LCLC-97TM1; type: functional, cell-based, Homo sapiens; settings: Homo sapiens, LCLC-97TM1;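 note: cell viability assay measuring growth inhibition of human LCLC-97TM1 cells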
Description: SANGER: Inhibition of human LCLC-97TM1 cell growth in a cell viability assay.

[42] = system: EB2; type: functional, cell-based, Homo sapiens; settings: Homo sapiens, EB2;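 note: growth inhibition of EB2 cells, read out with a cell viability assay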
Description: SANGER: Inhibition of human EB2 cell growth in a cell viability assay.

[43] = system: NCI-H810; type: functional, cell-based, Homo sapiens; settings: Homo sapiens, NCI-H810;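 note: IC50 reflects inhibition of cancer cell line growth, read out with a cell viability assay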
Description: SANGER: Inhibition of human NCI-H810 cell growth in a cell viability assay.

[44] = system: JEG-3; type: functional, cell-based, Homo sapiens; settings: Homo sapiens, JEG-3;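 note: growth inhibition of human JEG-3 cells, read out with a cell viability assay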
Description: SANGER: Inhibition of human JEG-3 cell growth in a cell viability assay.

Compound: COc1cccc2c1C(=O)c1c(O)c3c(c(O)c1C2=O)C[C@@](O)(C(=O)CO)C[C@@H]3O[C@H]1C[C@H](N)[C@H](O)[C@H](C)O1 [DOXORUBICIN]
- IC50 [1]: 15.5 nM
- IC50 [2]: 395 nM
- IC50 [3]: 49.1 nM
- IC50 [4]: 117 nM
- IC50 [5]: 189 nM
- IC50 [6]: 67.2 nM
- IC50 [7]: > 1020 nM
- IC50 [8]: > 1020 nM
- IC50 [9]: 291 nM
- IC50 [10]: 72.3 nM
- IC50 [11]: 73.7 nM
- IC50 [12]: 72.9 nM
- IC50 [13]: 32.9 nM
- IC50 [14]: 56 nM
- IC50 [15]: 441 nM
- IC50 [16]: 27.8 nM
- IC50 [17]: 88.4 nM
- IC50 [18]: 874 nM
- IC50 [19]: 148 nM
- IC50 [20]: 22.8 nM
- IC50 [21]: > 1020 nM
- IC50 [22]: 25.9 nM
- IC50 [23]: 213 nM
- IC50 [24]: 236 nM
- IC50 [25]: 166 nM
- IC50 [26]: 32.6 nM
- IC50 [27]: 74.5 nM
- IC50 [28]: 160 nM
- IC50 [29]: 17.7 nM
- IC50 [30]: 49.3 nM
- IC50 [31]: 118 nM
- IC50 [32]: 855 nM
- IC50 [33]: 89.8 nM
- IC50 [34]: 109 nM
- IC50 [35]: 914 nM
- IC50 [36]: 293 nM
- IC50 [37]: 49.3 nM
- IC50 [38]: 44.5 nM
- IC50 [39]: 556 nM
- IC50 [40]: 16.2 nM
- IC50 [41]: 11.8 nM
- IC50 [42]: 33.7 nM
- IC50 [43]: 18.8 nM
- IC50 [44]: 95.1 nM
